Data published in patent US20230173090A1, “COMPOSITIONS AND METHODS FOR MODULATING DOPAMINE RECEPTOR ACTIVITY” (The Regents of the University of California, priority 2020, published 2023).

Experiments:
[1] = biological target: T1, D1R (Homo sapiens, UniProt P21728); test: D1R-mediated GIRK channel activation assay in HEK293T cells (whole-cell electrophysiology); assay type: cell-based
T1 construct: expressed in transfected cells; host or cells: HEK293T (A1, A2); HEK293 (A26)
Experimental: All constructs were cloned into mammalian expression vectors. For the receptor mediated-GIRK activation assay, HEK293T cells were seeded onto 18 mm coverslips and transiently transfected overnight with Lipofectamine 2000 and the following constructs: a receptor, a variant of the membrane-anchor (M; 0.7 µg), GIRK1(F137S) (0.7 µg), and tdTomato (0.2 µg). […] D1R, D5R, or opto-D1R were cotransfected with Gαis13 (0.35 µg), D3R with GαoA (0.7 µg), and M1R or mGluR1 with Gαiq5. Transfected cells were used for electrophysiology, imaging, or flow cytometry experiments.
HEK293T cells were sparsely seeded and maintained in DMEM (Invitrogen) with 10% fetal bovine serum on poly-L-lysine-coated coverslips at 37° C. and 5% CO2. HEK293T cells were voltage clamped in whole-cell configuration 16-48 hours after transfection. […] GluK2 electrophysiology was performed in the presence of 0.3 mg/mL concanavalin A to prevent desensitization. […] Cells were voltage clamped to -60 or -80 mV using an Axopatch 200A (Molecular Devices) amplifier.
For all experiments, compounds were applied using a gravity-driven perfusion system and illumination was applied to the entire field of view using a Polychrome V monochromator (TILL Photonics) through a 20x objective (maximum 0.05 mW/mm^2 at 370 nm and 0.5 mW/mm^2 at 460 nm or 473 nm) or a DG4 (Sutter) through a 20x objective (maximum 0.06 mW/mm^2 at 370 nm and 0.6 mW/mm^2 at 445 nm). pClamp software was used for both data acquisition and control of illumination.
The selection criteria for electrophysiological experiments are that a cell (i) expresses the fluorescent protein transfection marker, and (ii) responds to agonist, indicating the presence of either receptor and GIRK or an LGIC. Cells were not excluded unless the recording was of poor quality (e.g., unstable baseline).
Data were analyzed using GraphPad Prism (GraphPad), Clampfit (Axon instruments), Origin (OriginLab), MATLAB, or ImageJ software. For dose-response curves, data were normalized to vehicle (0%) and DA (100%) and nonlinear regression analysis was performed using the sigmoidal dose-response function in GraphPad Prism. Statistical analyses were performed using GraphPad Prism. All values reported are mean ± S.E.M.
FIGS. 9A-9H. Functional properties of untethered P-D1ago. (A) Schematic representation of a D1R-mediated G protein-coupled inwardly rectifying potassium (GIRK) channel assay in HEK293T cells. Agonist-induced receptor activation results in the recruitment of a heterotrimeric G protein containing the chimeric Gα subunit (Gαis) followed by the release of Gβγ, which activates GIRK channels and enhances inward-current. […] (E) Schematic representation of a highly sensitive D1R-mediated cAMP accumulation assay in HEK293T cells. Agonist-induced D1R activation results in Gs/olfrecruitment followed by the binding of its Gα subunit to adenylate cyclase (AC), which enhances the conversion of ATP to cAMP. cAMP binds the bioluminescence resonance energy transfer 1 (BRET′)-based cAMP sensor CAMYEL^87, resulting in a conformational change in its Epac domain that increases the distance and decreases BRET^1 between the donor Renilla luciferase (Rluc) and the acceptor YFP. […] Optimization and characterization of the D1R MP

[2] = Photophysical properties (absorbance, photoswitching); assay type: physicochemical
Experimental: FIGS. 8A-8D. Photophysical properties of P-D1ago. (A) Absorbance spectra of P-D1ago under blue light (460 nm; blue) and UV light (370 nm; grey). (B) P-D1ago repeatedly switches from its trans to cis isomer with UV light and back to trans with blue light. […] Cells were incubated for 1 hour with vehicle (left upper panels), 1 µM surface block (left middle panels), or 1 µM P-D1ago (left lower panels), and were then labeled for 30 minutes with 1.5 µM BG-Alexa647. Cytosolic tdTomato was used as a transfection marker, grey bar = […]. A summary of labeling according to flow cytometry is shown on the right. unpaired two-sided t-test, p = 0.60. n = 3-6 replicates per condition. (D) M labeling as a function of the concentration of P-D1ago. The M was incubated for 1 hour with increasing concentrations of P-D1ago, and then labeled for 30 minutes with 1.5 µM BG-Alexa647. Labeling was measured by flow cytometry. (E) Time course of M labeling with P-D1ago. The M was incubated for different times with 1 µM P-D1ago, and then labeled for 30 minutes with 1.5 µM BG-Alexa647. Labeling was measured by flow cytometry. n = 3-4 replicates per condition. […] This contrasts with the commercially available permeant benzylguanine analog, cell block. […] Cytosolic mTurquoise was used as a transfection marker, grey bar = […]. A summary of labeling according to flow cytometry is shown on the right. unpaired two-sided t-test, ***p < 0.001. n = 3 replicates per condition.

[3] = biological target: T2, GIRK channels (Homo sapiens, UniProt P48549, F137S); conditions: 1 µM P-D1ago labeled cells without D1R; % of 3 mM BaCh, a GIRK channel blocker; n = 5 cells
T2 sequence (P48549 1-501 F137S): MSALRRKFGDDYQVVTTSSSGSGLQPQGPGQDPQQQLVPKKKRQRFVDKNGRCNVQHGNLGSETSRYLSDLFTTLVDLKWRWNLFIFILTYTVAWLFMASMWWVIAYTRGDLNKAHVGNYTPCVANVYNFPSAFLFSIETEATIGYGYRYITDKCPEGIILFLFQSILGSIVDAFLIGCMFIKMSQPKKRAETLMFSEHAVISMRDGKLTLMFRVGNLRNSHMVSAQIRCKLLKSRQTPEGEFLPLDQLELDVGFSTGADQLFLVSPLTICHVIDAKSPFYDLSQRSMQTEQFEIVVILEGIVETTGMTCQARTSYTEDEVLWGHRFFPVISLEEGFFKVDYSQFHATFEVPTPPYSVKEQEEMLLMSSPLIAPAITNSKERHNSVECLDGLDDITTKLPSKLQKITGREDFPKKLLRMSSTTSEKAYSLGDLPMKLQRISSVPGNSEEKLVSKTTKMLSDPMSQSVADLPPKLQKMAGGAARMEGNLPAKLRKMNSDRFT

T1 sequence (P21728 whole entry): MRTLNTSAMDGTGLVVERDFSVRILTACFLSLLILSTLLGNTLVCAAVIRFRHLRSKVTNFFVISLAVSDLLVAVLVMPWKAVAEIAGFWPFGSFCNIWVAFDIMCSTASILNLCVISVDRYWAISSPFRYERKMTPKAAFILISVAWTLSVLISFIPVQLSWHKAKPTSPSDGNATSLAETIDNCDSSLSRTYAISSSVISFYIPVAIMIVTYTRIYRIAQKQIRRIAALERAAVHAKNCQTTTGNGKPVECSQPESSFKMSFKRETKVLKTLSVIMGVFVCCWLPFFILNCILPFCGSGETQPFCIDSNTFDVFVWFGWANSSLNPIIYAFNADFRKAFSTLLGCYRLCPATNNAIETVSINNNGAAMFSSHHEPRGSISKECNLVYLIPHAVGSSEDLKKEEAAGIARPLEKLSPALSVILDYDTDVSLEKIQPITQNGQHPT

Question: Which “effect of untethered P-D1ago on D1R in the GIRK assay” value ([1]; absence of the membrane-anchor (M), 1 µM or 10 µM, trans (blue light) or cis (UV light)) does the source give for `CCCN(CCc1ccc(N=Nc2ccc(NC(=O)CNC(=O)CCOCCOCCOCCOCCOCCOCCOCCOCCOCCOCCOCCOCCn3cc(CCC(=O)NCc4ccc(COc5nc(N)nc6nc[nH]c56)cc4)nn3)cc2)cc1)C1CCc2c(O)cccc2C1` (stereo not drawn) [P-D1ago, Benzylguanine-azobenzene-PPHT] here?
Answer: Neither 1 µM or 10 µM P-D1ago, concentrations that fully label the M (FIG. 8D), have any effect on the receptor

Question: What about the “D1R activation by P-D1ago tethered to MEAAAK” value ([1]; tethered to MEAAAK (SEQ ID NO:16), blue light) of the same compound?
Answer: only partially activates D1R

Question: What about the “D1R activation in the presence of sub-saturating DA” value ([1]; tethered to MEAAAK, 100 nM and 1 µM DA) of the same compound?
Answer: further activated D1R

Question: And the “effect on the ability of DA to activate D1R” value ([1]; tethered to MEAAAK, saturating DA (10 µM))?
Answer: did not diminish the ability of DA to fully activate D1R

Question: What about the “photoactivation of D1R by P-D1ago tethered to the M” value ([1]; tethered to the M, relative to a saturating concentration of DA) of the same compound?
Answer: partially photoactivated with blue light (460 nm) and is deactivated with UV light (370 nm)

Question: And the “wavelength switching trans-isomer to cis-isomer” value ([2]; UV light)?
Answer: 370 nm

Question: And the “wavelength switching cis-isomer back to trans-isomer” value ([2]; blue light)?
Answer: 460 nm

Question: And the “stability of the cis state” value ([2]; in the dark after illumination with UV light)?
Answer: stable in the cis state in the dark

Question: What about the “effect of switching from UV light to blue light on basal current” value [3] of the same compound?
Answer: 1.3 ± 1.0%
